# Values quoted from earlier work as cited in patent US9694080B2, “Polymer release system” (EGALET LTD., priority 2001, dated 2017).
Structure (SMILES),beta effect relative to S(−) (β1 and β2),α effect relative to S(−) (α-adrenoceptor),dose linearity range (literature),"absorption in the large intestine, share of the total absorption (timed-release capsules, Nolte et al)"
COc1ccccc1OCCNC[C@@H](O)COc1cccc2[nH]c3ccccc3c12 [R(+)],1/100,the same α effect,,
COc1ccccc1OCCNCC(O)COc1cccc2[nH]c3ccccc3c12 (stereo not shown) [Carvedilol],,,6.25 to 50 mg,approximately 10%
